pIC50: −log10 of the molar value.
test system: THP-1 cells; experiment: LPS induced cytokine (TNFα and IL8) production assay in THP-1 cells; format: cell-based; settings: Homo sapiens, 300 ng/mL LPS, read-out: IL8 production IC50
Description: Cytokine Production Assay
Provided compounds were also assayed in an LPS (Lipopolysacharide) or R848 (TLR-7 agonist) induced cytokine (TNFα and IL8) production assay in THP-1 cells, human peripheral blood mononuclear cells (hPBMC), and whole blood. The exemplary protocol for this assay in THP-1 cells was as follows below.
THP-1 cells from ATCC (TIB-202) were cultured in RPMI Medium 1640 (Invitrogen, Cat No. A10491-01), 10% fetal bovine serum (Invitrogen, Cat No. 10099141, Lot No. 8172882) containing 100 U/mL Penicillin, 100 μg/mL streptomycin (Invitrogen, Cat No. 15140-122), and 50 uM 2-Mercaptoethanol (Invitrogen, Cat No. 21985023). LPS-EK ultra pure (Invivogen, Cat No. tlrl-peklps) was used to induce IL8 and TNFα production, that was detected in the cell culture supernatant by IL8 HTRF kit (Cisbio, Cat No. 62IL8PEB) and TNFα HTRF kit (Cisbio, Cat No. 62TNFPEB), as per manufacturer instructions. Cells were cultured in 96 well assay plates at 100,000 cells per well, and compounds diluted in final 0.3% DMSO were pre-incubated with cells for 1 hour prior to stimulation with 300 ng/mL LPS. Cytokine production in cell supernatant was measured at 5 hours for TNFα and IL8 production, and for 16 hours for IL8 production and assessment of cell viability.
The compound numbers correspond to the compound numbers in Table 1. […] “NA” stands for “not assayed.”

| pIC50 | Structure (SMILES) |
| --- | --- |
| ≥ 6.30 | NC(=O)C(O)C[C@H]1CCc2sc3ncnc(O[C@H]4CC[C@H](N5CCOCC5)CC4)c3c21 (mixture of isomers) [Compound I-87, 2-hydroxy-3-((R)-4-(((1r,4R)-4-morpholinocyclohexyl)oxy)-6,7-dihydro-5H-cyclopenta[4,5]thieno[2,3-d]pyrimidin-5-yl)propanamide] |
| ≤ 5.30 | Cn1cc(Nc2nc(O[C@H]3CC[C@H](N(C)C)CC3)c3c4c(sc3n2)CCC4CC(N)=O)cn1 (stereo in doubt) [Compound I-222, 2-[(3R)-12-[[4-(dimethylamino)cyclohexyl]oxy]-10-[(1-methyl-1H-pyrazol-4-yl)amino]-7-thia-9, 11-diazatricyclo[6.4.0.0[2,6]]dodeca-1(8),2(6),9,11-tetraen-3-yl]acetamide] |
| 5.30 to 6.00 | NC(=O)[C@H](O)C[C@H]1CCc2sc3ncnc(O[C@H]4CC[C@H](N5CCOCC5)CC4)c3c21 [Compound I-93, (R)-2-hydroxy-3-((R)-4-(((1r,4R)-4-morpholinocyclohexyl)oxy)-6,7-dihydro-5H-cyclopenta[4,5]thieno[2,3-d]pyrimidin-5-yl)propanamide] |

same assay, conditions: Homo sapiens, 300 ng/mL LPS, read-out: TNFα production IC50

| pIC50 | Structure (SMILES) |
| --- | --- |
| ≥ 6.30 | NC(=O)C(O)C[C@H]1CCc2sc3ncnc(O[C@H]4CC[C@H](N5CCOCC5)CC4)c3c21 (mixture of isomers) [Compound I-87, 2-hydroxy-3-((R)-4-(((1r,4R)-4-morpholinocyclohexyl)oxy)-6,7-dihydro-5H-cyclopenta[4,5]thieno[2,3-d]pyrimidin-5-yl)propanamide] |
| ≤ 5.30 | Cn1cc(Nc2nc(O[C@H]3CC[C@H](N(C)C)CC3)c3c4c(sc3n2)CCC4CC(N)=O)cn1 (stereo in doubt) [Compound I-222, 2-[(3R)-12-[[4-(dimethylamino)cyclohexyl]oxy]-10-[(1-methyl-1H-pyrazol-4-yl)amino]-7-thia-9, 11-diazatricyclo[6.4.0.0[2,6]]dodeca-1(8),2(6),9,11-tetraen-3-yl]acetamide] |
| 5.30 to 6.00 | NC(=O)[C@H](O)C[C@H]1CCc2sc3ncnc(O[C@H]4CC[C@H](N5CCOCC5)CC4)c3c21 [Compound I-93, (R)-2-hydroxy-3-((R)-4-(((1r,4R)-4-morpholinocyclohexyl)oxy)-6,7-dihydro-5H-cyclopenta[4,5]thieno[2,3-d]pyrimidin-5-yl)propanamide] |

biological target: T1, IRAK4 (Homo sapiens, UniProt Q9NWZ3); experiment: IRAK-4 activity inhibition assay (Caliper); format: biochemical; settings: 37 μM ATP, 3.5 nM IRAK4
T1 sequence (Q9NWZ3 1-460): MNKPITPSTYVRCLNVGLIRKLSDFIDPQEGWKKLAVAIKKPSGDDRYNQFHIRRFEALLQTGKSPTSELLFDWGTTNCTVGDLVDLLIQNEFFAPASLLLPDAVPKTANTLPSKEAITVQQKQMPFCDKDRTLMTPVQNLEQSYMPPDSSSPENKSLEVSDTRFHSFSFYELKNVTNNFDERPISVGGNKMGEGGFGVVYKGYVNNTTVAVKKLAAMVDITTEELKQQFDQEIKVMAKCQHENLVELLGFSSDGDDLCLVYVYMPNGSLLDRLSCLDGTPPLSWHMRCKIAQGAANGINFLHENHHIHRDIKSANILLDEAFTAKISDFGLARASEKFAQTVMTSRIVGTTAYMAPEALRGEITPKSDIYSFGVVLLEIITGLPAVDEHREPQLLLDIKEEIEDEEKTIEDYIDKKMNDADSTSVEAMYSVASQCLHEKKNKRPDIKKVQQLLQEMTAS

| pIC50 | Structure (SMILES) |
| --- | --- |
| 4.30 to 4.70 | CC(=O)N1Cc2sc3ncnc(O[C@H]4CC[C@H](N5CCOCC5)CC4)c3c2C1 [Compound I-198, 1-(12-[[4-(morpholin-4-yl)cyclohexyl]oxy]-7-thia-4,9,11-triazatricyclo[6.4.0.0[2,6]]dodeca-1(12),2(6),8, 10-tetraen-4-yl)ethan-1-one] |
| 4.30 to 4.70 | COC(=O)N1Cc2sc3ncnc(O[C@H]4CC[C@H](N5CCOCC5)CC4)c3c2C1 [Compound I-199, methyl 12-[[4-(morpholin-4-yl)cyclohexyl]oxy]-7-thia-4,9, 11-triazatricyclo[6.4.0.0[2,6]]dodeca-1(12),2(6),8, 10-tetraene-4-carboxylate] |
| > 5.30 | CNC(=O)N1Cc2sc3ncnc(O[C@H]4CC[C@H](N5CCOCC5)CC4)c3c2C1 [Compound I-200, N-methyl-12-[[4-(morpholin-4-yl)cyclohexyl]oxy]-7-thia-4,9, 11-triazatricyclo[6.4.0.0[2,6]]dodeca-1(8),9, 11-triene-4-carboxamide] |
| > 5.30 | CN(C)[C@H]1CC[C@H](Oc2ncnc3sc4c(c23)CN(C(N)=O)CC4)CC1 [Compound I-201, 3-[[4-(dimethylamino)cyclohexyl]oxy]-8-thia-4,6, 12-triazatricyclo[7.4.0.0[2,7]]trideca-1(9),2,4,6-tetraene-12-carboxamide] |
| 4.70 to 5.30 | CN[C@H]1CC[C@H](Oc2ncnc3sc4c(c23)CN(C(C)=O)CC4)CC1 [Compound I-202, 1-(3-[[4-(methylamino)cyclohexyl]oxy]-8-thia-4,6,12-triazatricyclo[7.4.0.0[2,7]]trideca-1 (9),2,4,6-tetraen-12-yl)ethan-1-one] |
| > 5.30 | NC(=O)C1CCc2sc3ncnc(N[C@H]4CC[C@H](N5CCOCC5)CC4)c3c2C1 (stereo partly drawn) [Compound I-203, 3-[[4-(morpholin-4-yl)cyclohexyl]amino]-8-thia-4,6-diazatricyclo[7.4.0.0[2,7]]trideca-1(9),2,4,6-tetraene-12-carboxamide] |
| > 5.30 | NC(=O)[C@@H]1CCc2sc3ncnc(N[C@H]4CC[C@H](N5CCOCC5)CC4)c3c2C1 [Compound I-208, (12R)-3-[[4-(morpholin-4-yl)cyclohexyl]amino]-8-thia-4,6-diazatricyclo[7.4.0.0[2,7]]trideca-1(9),2(7),3,5-tetraene-12-carboxamide] |
| > 5.30 | CN(C)[C@H]1CC[C@H](Oc2ncnc3sc4c(c23)CN(S(=O)(=O)CCO)CC4)CC1 [Compound I-209, 2-(3-[[4-(dimethylamino)cyclohexyl]oxy]-8-thia-4,6, 12-triazatricyclo[7.4.0.0[2,7]]trideca-1(9),2,4,6-tetraene-12-sulfonyl)ethan-1-ol] |
| > 5.30 | OC[C@H]1CCc2sc3ncnc(N[C@H]4CC[C@H](N5CCOCC5)CC4)c3c2C1 [Compound I-210, [(12S)-3-[[4-(morpholin-4-yl)cyclohexyl]amino]-8-thia-4,6-diazatricyclo[7.4.0.0[2,7]]trideca-2,4,6-trien-12-yl]methanol] |
| > 5.30 | OC[C@@H]1CCc2sc3ncnc(N[C@H]4CC[C@H](N5CCOCC5)CC4)c3c2C1 [Compound I-211, [(12R)-3-[[4-(morpholin-4-yl)cyclohexyl]amino]-8-thia-4,6-diazatricyclo[7.4.0.0[2,7]]trideca-1(9),2,4,6-tetraen-12-yl]methanol] |
| > 5.30 | OC[C@H]1CCc2sc3ncnc(O[C@H]4CC[C@H](N5CCOCC5)CC4)c3c2C1 [Compound I-216, [(12S)-3-[[4-(morpholin-4-yl)cyclohexyl]oxy]-8-thia-4,6-diazatricyclo[7.4.0.0[2,7]]trideca-1(9),2(7),3,5-tetraen-12-yl]methanol] |
| > 5.30 | NC(=O)[C@H](O)C[C@H]1CCc2sc3ncnc(O[C@H]4CC[C@H](N5CCCCC5)CC4)c3c21 [Compound I-218, (R)-2-hydroxy-3-((R)-4-(((1r,4R)-4-(piperidin-1-yl)cyclohexyl)oxy)-6,7-dihydro-5H-cyclopenta[4,5]thieno[2,3-d]pyrimidin-5-yl)propanamide] |
| > 5.30 | CN(C)[C@H]1CC[C@H](Oc2ncnc3sc4c(c23)CC(CCO)OC4)CC1 (stereo partly drawn) [Compound I-219, 2-(3-[[4-(dimethylamino)cyclohexyl]oxy]-1-oxa-8-thia-4,6-diazatricyclo[7.4.0.0[2,7]]trideca-1(9),2,4,6-tetraen-12-yl)ethan-1-ol] |
| > 5.30 | CN(C)[C@H]1CC[C@H](Oc2ncnc3sc4c(c23)CC(CC(N)=O)OC4)CC1 (stereo partly drawn) [Compound I-221, 2-(3-[[4-(dimethylamino)cyclohexyl]oxy]-11-oxa-8-thia-4,6-diazatricyclo[7.4.0.0[2,7]]trideca-1(9),2(7),3,5-tetraen-12-yl)acetamide] |
| > 5.30 | NC(=O)[C@@H](O)C[C@H]1CCc2sc3ncnc(O[C@H]4CC[C@H](N5CCCC5)CC4)c3c21 [Compound I-226, (S)-2-hydroxy-3-((R)-4-(((1r,4R)-4-(pyrrolidin-1-yl)cyclohexyl)oxy)-6,7-dihydro-5H-cyclopenta[4,5]thieno[2,3-d]pyrimidin-5-yl)propanamide] |
| > 5.30 | C[C@@H]1COCCN1[C@H]1CC[C@H](Oc2ncnc3sc4c(c23)[C@@H](CC(N)=O)CC4)CC1 [Compound I-227, 2-[(3R)-12-([4-[(3R)-3-methylmorpholin-4-yl]cyclohexyl]oxy)-7-thia-9,11-diazatricyclo[6.4.0.0[2,6]]dodeca-1(8),2(6),9, 11-tetraen-3-yl]acetamide] |
| > 5.30 | O=C(O)[C@H]1CCc2sc3ncnc(O[C@H]4CC[C@H](N5CCOCC5)CC4)c3c2C1 [Compound I-234, (12S)-3-[[(1r,4r)-4-(morpholin-4-yl)cyclohexyl]oxy]-8-thia-4,6-diazatricyclo[7.4.0.0[2,7]]trideca-1(9),2(7),3,5-tetraene-12-carboxylic acid] |
| > 5.30 | NC(=O)[C@H]1CCc2sc3ncnc(O[C@H]4CC[C@H](N5CCC(F)(F)CC5)CC4)c3c2C1 [Compound I-236, (12S)-3-[[4-(4,4-difluoropiperidin-1-yl)cyclohexyl]oxy]-8-thia-4,6-diazatricyclo[7.4.0.0[2,7]]trideca-1(9),2(7),3,5-tetraene-12-carboxamide] |
| > 5.30 | CC1(C(N)=O)CCc2sc3ncnc(O[C@H]4CC[C@H](N5CCOCC5)CC4)c3c2C1 (stereo partly drawn) [Compound I-237, 12-methyl-3-[[(1r,4r)-4-(morpholin-4-yl)cyclohexyl]oxy]-8-thia-4,6-diazatricyclo[7.4.0.0[2,7]]trideca-1(9),2,4,6-tetraene-12-carboxamide] |
| > 5.30 | CN(C)[C@H]1CC[C@H](Oc2ncnc3sc4c(c23)CN(S(N)(=O)=O)CC4)CC1 [Compound I-238, 3-[[4-(dimethylamino)cyclohexyl]oxy]-8-thia-4,6, 12-triazatricyclo[7.4.0.0[2,7]]trideca-1(9),2(7),3,5-tetraene-12-sulfonamide] |

| Structure (SMILES) | pIC50 |
| --- | --- |
| NC(=O)C(=O)C[C@H]1CCc2sc3ncnc(OC4CCC(N5CCOCC5)CC4)c3c21 (stereo partly drawn) [Compound I-213, 3-[(3R)-12-[[4-(morpholin-4-yl)cyclohexyl]oxy]-7-thia-9, 11-diazatricyclo[6.4.0.0[2,6]]dodeca-1(8),2(6),9, 11-tetraen-3-yl]-2-oxopropanamide] | > 5.30 |
